1 compound from PMC10112521, “High-throughput AR dimerization assay identifies androgen disrupting chemicals and metabolites” (Frontiers in Toxicology, 2023) can be followed below.

The target in data set [1] is T1, human AR (Homo sapiens, UniProt P10275).
T1 sequence (P10275 1-920) 1: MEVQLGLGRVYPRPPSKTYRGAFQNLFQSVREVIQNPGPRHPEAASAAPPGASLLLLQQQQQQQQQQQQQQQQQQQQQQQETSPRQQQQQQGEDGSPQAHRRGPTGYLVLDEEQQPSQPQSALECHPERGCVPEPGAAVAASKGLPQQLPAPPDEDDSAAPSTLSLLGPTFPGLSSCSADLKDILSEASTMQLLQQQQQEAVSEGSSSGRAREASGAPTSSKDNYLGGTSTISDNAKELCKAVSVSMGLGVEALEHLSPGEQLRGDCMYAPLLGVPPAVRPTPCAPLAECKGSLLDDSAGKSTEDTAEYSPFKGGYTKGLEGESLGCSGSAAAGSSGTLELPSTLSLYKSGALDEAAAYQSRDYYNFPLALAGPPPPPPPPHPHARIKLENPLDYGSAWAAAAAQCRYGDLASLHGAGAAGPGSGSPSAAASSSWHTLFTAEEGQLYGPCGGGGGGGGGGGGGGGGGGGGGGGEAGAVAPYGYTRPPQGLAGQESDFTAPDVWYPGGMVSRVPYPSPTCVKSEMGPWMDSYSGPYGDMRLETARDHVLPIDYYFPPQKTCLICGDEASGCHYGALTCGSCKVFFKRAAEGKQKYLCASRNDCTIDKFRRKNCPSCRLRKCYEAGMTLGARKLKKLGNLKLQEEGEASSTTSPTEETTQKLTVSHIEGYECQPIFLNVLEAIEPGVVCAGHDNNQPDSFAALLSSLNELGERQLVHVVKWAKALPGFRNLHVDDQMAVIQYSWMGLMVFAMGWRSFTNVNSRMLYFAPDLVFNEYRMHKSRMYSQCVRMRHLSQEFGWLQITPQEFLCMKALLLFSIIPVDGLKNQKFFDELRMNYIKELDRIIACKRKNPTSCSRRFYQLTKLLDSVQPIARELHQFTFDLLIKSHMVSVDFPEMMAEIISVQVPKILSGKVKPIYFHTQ
T1 sequence (P10275 1-920) 2: T1 sequence (P10275 1-920) 1

The target in data set [2] is T1, human AR. Description: AR2 assay, agonist mode: ligand-dependent AR homodimerization (NanoBiT luciferase complementation) in stable HepG2-AR2 cells.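 On hill tp: Log2 fold change of luminescence over DMSO vehicle wells.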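 On max med: Log2 fold change of luminescence over DMSO vehicle wells.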 Format: cell-based. Further details: Emax: dose or concentration left out as unconfirmed.

The structures appear in SMILES notation.

Consider `C[C@]1(O)CC[C@H]2[C@@H]3CCC4=CC(=O)CCC4=C3C=C[C@@]21C` [R1881, (17b)-17-hydroxy-17-methyl-estra-4,9,11-trien-3-one], for which the “effect of CYP metabolism on the AR2 assay controls” value on human AR [1] is “unimpacted by CYP metabolism”. Further, on human AR [2], the hill_gw is 1.162, the hill_tp was 6.231, the max_med was determined as 6.236 and the win_model entry is listed as “Hill”. The Emax on human AR [2] (read-out: maximal response) was more than 95%.
